This is an account of results in patent US12286405B2, “Scalable synthesis of dual-target inhibitor of cannabinoid-1 receptor and inducible nitric oxide synthase” (THE UNITED STATES OF AMERICA, AS REPRESENTED BY THE …, priority 2019, dated 2025).

Converted amounts (≈) assume the structure as drawn.

Data set [1] can be described thus: solubility of rac-1 in organic solvent (dichloromethane). The settings on record: organic solvent or mixture. The data set is classed as physicochemical. From the text: To overcome this obstacle, the present inventors discovered an enantioselective approach to (S,1E,NE)-N-(1-aminoethylidene)-3-(4-chlorophenyl)-4-phenyl-N′-((4-(trifluoromethyl)phenyl)sulfonyl)-4,5-dihydro-1H-pyrazole-1-carboximidamide (S)-1 in high optical purity.

The test system of data set [2] is animal models of fibrosis. The settings on record: mediated by iNOS inhibition and CB1R antagonism; cited from earlier work.
The target in another data set is CB1R (Homo sapiens, UniProt P21554). The following applies: in vivo; mediated by the CB1R antagonism; cited from earlier work.
Chain of CB1R (P21554 whole entry): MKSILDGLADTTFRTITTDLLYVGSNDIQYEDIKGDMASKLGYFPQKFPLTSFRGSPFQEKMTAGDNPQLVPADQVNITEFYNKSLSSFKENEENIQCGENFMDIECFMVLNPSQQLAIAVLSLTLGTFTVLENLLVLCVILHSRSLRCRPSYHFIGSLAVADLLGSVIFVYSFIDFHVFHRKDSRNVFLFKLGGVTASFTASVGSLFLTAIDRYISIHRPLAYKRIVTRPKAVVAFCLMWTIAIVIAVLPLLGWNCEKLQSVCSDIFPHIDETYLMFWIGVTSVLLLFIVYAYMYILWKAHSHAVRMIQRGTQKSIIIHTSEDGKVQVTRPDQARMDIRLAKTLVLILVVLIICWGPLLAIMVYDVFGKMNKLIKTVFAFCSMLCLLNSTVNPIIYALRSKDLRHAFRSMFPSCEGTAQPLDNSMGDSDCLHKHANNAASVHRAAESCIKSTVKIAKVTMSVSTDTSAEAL

As usually defined, the solubility is how much of the substance goes into solution per volume. For the compound `C/C(N)=N\C(=N/S(=O)(=O)c1ccc(C(F)(F)F)cc1)N1CC(c2ccccc2)C(c2ccc(Cl)cc2)=N1` (racemic) [rac-1, (1E,NE)-N-(1-aminoethylidene)-3-(4-chlorophenyl)-4-phenyl-N′-((4-(trifluoromethyl)phenyl)sulfonyl)-4,5-dihydro-1H-pyrazole-1-carboximidamide], in data set [1], the solubility was roughly 1000 µg/mL (≈ 1820 µM). Take `C/C(N)=N\C(=N\S(=O)(=O)c1ccc(C(F)(F)F)cc1)N1C[C@H](c2ccccc2)C(c2ccc(Cl)cc2)=N1` [(S)-1, (S,1E,NE)-N-(1-aminoethylidene)-3-(4-chlorophenyl)-4-phenyl-N′-((4-(trifluoromethyl)phenyl)sulfonyl)-4,5-dihydro-1H-pyrazole-1-carboximidamide]: in data set [2], the antifibrotic effect entry is “antifibrotic effect”. The food intake entry on CB1R is on record as “reduction of food intake”.
